In patent US20250388575A1, “HETEROBIFUNCTIONAL COMPOUNDS AND METHODS OF TREATING DISEASE” (Halda Therapeutics OpCo, Inc., priority 2022, published 2025):
Where two headings read alike, the source gives them in different places.

Key:
[1] = tested on: T-Rex 293 cell line SC3 cells having increased expression of androgen receptor protein; test: Cellular growth inhibition, T-Rex 293 SC3 cells with increased androgen receptor expression (doxycycline), CellTiter-Glo; assay type: cell-based; settings: T-Rex 293 SC3 cells with increased androgen receptor expression (exposed to 10 ng/mL doxycycline), 72 hours, CellTiter-Glo; read-out: GI50
Description: (§1) The following types of cells were prepared for this experiment: (i) a T-Rex 293 cell line having increased expression of androgen receptor protein due to exposure to doxycycline and (ii) a T-Rex 293 cell line lacking increased expression of androgen receptor protein. Ability of the test compounds to inhibit proliferation of the foregoing cell types was evaluated according to the procedures set forth below.
(§2) The doxycycline-inducible androgen receptor protein expressing cell line was established using the following protocol: T-Rex 293 cells were purchased from Invitrogen (Cat #R71007) and transfected using Lipofectamine 2000 with the wild-type androgen receptor protein sequence cloned into the pcDNA4/TO vector. Transfected cells were selected using 400 μg/mL Zeocin (Invitrogen Cat #R25001). Following selection, single clones were raised and maintained in Dulbecco's Modified Eagle Medium (DMEM) supplemented with 10% w/w Tetracycline-free fetal bovine serum (FBS) and 250 μg/mL Zeocin. Clones were analyzed for expression of androgen receptor protein in the presence and absence of 10 ng/ml doxycycline (Sigma Cat #D9891), and a single doxycycline-inducible clone (hereinafter “SC3”) was selected for use in downstream assays.
(§3) The SC3 cells were seeded on poly-D-lysine coated, black clear-bottom 384-well plates at 2500/well, in 25 μL Phenol Red Free Dulbecco's Modified Eagle Medium (DMEM) supplemented with 10% w/w charcoal-dextran treated fetal bovine serum (FBS) and 1% w/w pen-strep, with or without 10 ng/mL doxycycline. Pen-Strep is a commercially available mixture of penicillin G and streptomycin, which is used in mammalian cell culture media to prevent bacterial contamination. Phenol Red Free Dulbecco's Modified Eagle Medium (DMEM) supplemented with 10% w/w charcoal-dextran treated fetal bovine serum (FBS) and 1% w/w pen-strep, with or without 10 ng/mL doxycycline is herein referred to as Treatment Medium. Following seeding of cells in the plates, the plates were spun at 300×g for 30 seconds, then equilibrated to room temperature for 30 minutes, and then deposited in a humidified tissue culture incubator maintained at 37° C. with 5% CO2.
(§4) At 24 hours after seeding of the cells, dilutions of test compound were prepared in DMSO and dissolved in Treatment Medium, to achieve a final DMSO concentration of 0.5% w/w, thereby providing the Test Compound Solution. A 25 μL aliquot of the Test Compound Solution was added to cells in the well plates. An equal volume of a solution containing DMSO and Treatment Medium was used as a negative control. Following treatment of cells with Test Compound Solution or said equal volume of a solution containing DMSO and Treatment Medium, the plates were spun at 300×g for 30 seconds, and then left in an incubator for 72 hours.
(§5) At the end of the treatment duration, cell viability was quantified with CellTiter-Glo 2.0 reagent (Promega Cat #G9243). For this purpose, plates were equilibrated to room temperature for 30 minutes, and then 25 μL of CellTiter-Glo 2.0 reagent was added to cells in the plate wells. Plates were then agitated on a shaker for two minutes at 500 rpm and subsequently incubated at room temperature for 10 minutes. Following incubation, the plates were spun at 3000×g for 30 seconds, then sealed with an optical adhesive cover, and luminescence readings were measured with an EnVision Plate Reader.
(§6) Data was normalized using zero luminescence for baseline. A four-parameter non-linear regression curve fit was applied to dose-response data in GraphPad Prism data analysis software to determine the half-maximal growth inhibitory concentration (GI50) for each test compound.

[2] = tested on: T-Rex 293 cell line SC3 cells lacking increased expression of androgen receptor protein; test: Cellular growth inhibition, T-Rex 293 SC3 cells lacking increased androgen receptor expression (no doxycycline), CellTiter-Glo; assay type: cell-based; settings: T-Rex 293 SC3 cells lacking increased androgen receptor expression (not exposed to doxycycline), 72 hours, CellTiter-Glo; read-out: GI50
Description: as §1, §2, §3, §4, §5, §6

VCaP cells = test: Cellular growth inhibition assay for VCaP cells, CellTiter-Glo; assay type: cell-based, human; settings: VCaP cells, 72 hours, CellTiter-Glo, read-out: GI50
Description: VCaP cells were purchased from American Type Cell Culture (ATCC Cat #CRL2876) and then seeded on poly-D-lysine coated, black clear-bottom 384-well plates at 5000/well in 25 μL Dulbecco's Modified Eagle Medium (DMEM) supplemented with 10% w/w Fetal bovine serum (FBS) and 1% w/w Pen-Strep. Pen-Strep is a commercially available mixture of penicillin G and streptomycin, which is used in mammalian cell culture media to prevent bacterial contamination. Dulbecco's Modified Eagle Medium (DMEM) supplemented with 10% w/w fetal bovine serum (FBS) and 1% w/w Pen-Strep is herein referred to as Treatment Medium. Following seeding of cells in the plates, the plates were spun at 300×g for 30 seconds, then equilibrated to room temperature for 30 minutes, and then deposited in a humidified tissue culture incubator maintained at 37° C. with 5% CO2.
as §4, §5, §6

T47D cells = test: Cellular growth inhibition assay for T47D cells, CellTiter-Glo; assay type: cell-based, human; settings: 72 hours treatment, CellTiter-Glo 2.0
Description: T47D cells were purchased from American Type Cell Culture (ATCC Cat #HTB-133) and then seeded on poly-D-lysine coated, black clear-bottom 384-well plates at 3000/well in 25 μL Dulbecco's Modified Eagle Medium (DMEM) supplemented with 10% w/w Fetal bovine serum (FBS), 0.2 units/mL recombinant human insulin (Gibco Cat #12585014), and 1% w/w Pen-Strep. Pen-Strep is a commercially available mixture of penicillin G and streptomycin, which is used in mammalian cell culture media to prevent bacterial contamination. Dulbecco's Modified Eagle Medium (DMEM) supplemented with 10% w/w fetal bovine serum (FBS), 0.2 units/mL recombinant human insulin, and 1% w/w Pen-Strep is herein referred to as Treatment Medium. Following seeding of cells in the plates, the plates were spun at 300×g for 30 seconds, then equilibrated to room temperature for 30 minutes, and then deposited in a humidified tissue culture incubator maintained at 37° C. with 5% CO2.
as §4
as §5, with “Reader (Perkin Elmer).” for “Reader.”
as §6

Row | GI50 (VCaP cells) | GI50 (T47D cells) | GI50 (VCaP cells; Homo sapiens) | GI50 (T47D cells; Homo sapiens) | SMILES | GI50 [1] | GI50 [2]
1 | < 500 nM | < 500 nM | – | – | CCS(=O)(=O)c1ccc(Oc2c(F)cc(CCC3CCN(c4ccc(C(=O)N[C@H]5CC[C@H](Oc6ccc(C#N)c(Cl)c6)CC5)nn4)CC3)cc2F)c(-c2cn(C)c(=O)c3[nH]ccc23)c1 [I-58] | < 500 nM | > 3000 nM
2 | < 500 nM | < 500 nM | – | – | CCS(=O)(=O)c1ccc(Oc2cccc(CCCC3CCN(c4ncc(C(=O)N[C@H]5CC[C@H](Oc6ccc(C#N)c(Cl)c6)CC5)cn4)CC3)c2)c(-c2cn(C)c(=O)c3[nH]ccc23)c1 [I-66] | < 500 nM | < 500 nM
3 | – | – | < 500 nM | < 500 nM | CN(C1CCN(c2ccc(C(=O)N[C@H]3CC[C@H](Oc4ccc(C#N)c(Cl)c4)CC3)nn2)CC1)C1CN(c2ccc(Oc3ccc(C(C)(C)O)cc3-c3cn(C)c(=O)c4[nH]ccc34)cc2)C1 [I-140] | < 500 nM | < 500 nM
4 | < 500 nM | < 500 nM | – | – | Cn1cc(-c2cc(C(C)(C)O)ccc2Oc2ccc(CCCC3C4CN(c5ccc(C(=O)N[C@H]6CC[C@H](Oc7ccc(C#N)c(Cl)c7)CC6)nn5)CC34)cc2)c2cc[nH]c2c1=O (stereo partly shown) [I-128] | < 500 nM | < 500 nM
5 | – | – | < 500 nM | < 500 nM | CCS(=O)(=O)c1ccc(Oc2ccc(CN3CCC4(CCN(c5ccc(C(=O)N[C@H]6CC[C@H](Oc7ccc(C#N)c(Cl)c7)CC6)nn5)C4)C3)c(F)c2)c(-c2cn(C)c(=O)c3[nH]ccc23)c1 (stereo partly shown) [I-75] | < 500 nM | < 500 nM
6 | 500 to 1500 nM | 500 to 1500 nM | – | – | Cn1cc(-c2cc(C(C)(C)O)ccc2Oc2ccc(CCC3CCN(c4ccc(C(=O)N[C@H]5CC[C@H](Oc6ccc(C#N)c(Cl)c6)CC5)nn4)CC3)c(F)c2F)c2cc[nH]c2c1=O [I-112] | < 500 nM | > 3000 nM
7 | < 500 nM | < 500 nM | – | – | CCS(=O)(=O)c1ccc(Oc2ccc(OCC3CCN(c4ccc(C(=O)N[C@H]5CC[C@H](Oc6ccc(C#N)c(Cl)c6)CC5)nn4)CC3)cc2)c(-c2cn(C)c(=O)c3[nH]ccc23)c1 [I-41] | < 500 nM | < 500 nM
8 | < 500 nM | < 500 nM | – | – | CCS(=O)(=O)c1ccc(Oc2ccc(CCC3CCN(c4ccc(C(=O)N[C@H]5CC[C@H](Oc6ccc(C#N)c(Cl)c6)CC5)nn4)CC3)nn2)c(-c2cn(C)c(=O)c3[nH]ccc23)c1 [I-221] | < 500 nM | < 500 nM
9 | – | – | < 500 nM | < 500 nM | CCS(=O)(=O)c1ccc(Oc2ccc(CC3CC4(CCN(c5ccc(C(=O)N[C@H]6CC[C@H](Oc7ccc(C#N)c(Cl)c7)CC6)nn5)CC4)C3)c(F)c2)c(-c2cn(C)c(=O)c3[nH]ccc23)c1 [I-81] | < 500 nM | < 500 nM
10 | – | – | < 500 nM | < 500 nM | CCS(=O)(=O)c1ccc(Oc2ccc(CCCC3CCN(c4ccc(C(=O)N[C@H]5CC[C@H](Oc6ccc(C#N)c(Cl)c6)CC5)nn4)CC3)cc2)c(-c2cn(C)c(=O)c3[nH]ccc23)c1 [I-61] | < 500 nM | < 500 nM
11 | – | – | < 500 nM | 1500 to 3000 nM | Cn1cc(-c2cc(C(C)(C)O)ccc2Oc2ccc(C3CN(C4CCN(c5ccc(C(=O)N[C@H]6CC[C@H](Oc7ccc(C#N)c(Cl)c7)CC6)nn5)CC4)C3)cc2)c2cc[nH]c2c1=O [I-254] | < 500 nM | 500 to 1500 nM
12 | – | – | < 500 nM | < 500 nM | Cn1cc(-c2cc(C(C)(C)O)ccc2Oc2ccc(CCCC3CCN(c4ccc(C(=O)N[C@H]5CC[C@H](Oc6ccc(C#N)c(Cl)c6)CC5)nn4)CC3)cc2)c2cc[nH]c2c1=O [I-124] | – | –
13 | < 500 nM | – | – | – | Cn1cc(-c2cc(S(=O)(=O)CCCN3CCN(c4ccc(C(=O)N[C@H]5CC[C@H](Oc6ccc(C#N)c(Cl)c6)CC5)nn4)CC3)ccc2Oc2ccc(F)cc2F)c2cc[nH]c2c1=O [I-93] | < 500 nM | > 3000 nM
14 | < 500 nM | – | – | – | Cn1cc(-c2cc(C(C)(C)O)ccc2Oc2ccc(C3CC4(CCN(c5ccc(C(=O)N[C@H]6CC[C@H](Oc7ccc(C#N)c(Cl)c7)CC6)nn5)CC4)C3)cc2)c2cc[nH]c2c1=O [I-117] | < 500 nM | < 500 nM
15 | < 500 nM | – | – | – | Cn1cc(-c2cc(C3(O)COC3)ccc2Oc2ccc(OCC3CCN(c4ccc(C(=O)NC5CCC(Oc6ccc(C#N)c(Cl)c6)CC5)nn4)CC3)cc2)c2cc[nH]c2c1=O (stereo not shown) [I-236, N-[4-(3-chloro-4-cyano-phenoxy)cyclohexyl]-6-[4-[[4-[4-(3-hydroxyoxetan-3-yl)-2-(6-methyl-7-oxo-1H-pyrrolo[2,3-c]pyridin-4-yl)phenoxy]phenoxy]methyl]-1-piperidyl]pyridazine-3-carboxamide] | < 500 nM | > 3000 nM
16 | < 500 nM | – | – | – | CCS(=O)(=O)c1ccc(Oc2ccc(CCCCC3CCN(c4ccc(C(=O)N[C@H]5CC[C@H](Oc6ccc(C#N)c(Cl)c6)CC5)nn4)CC3)cc2)c(-c2cn(C)c(=O)c3[nH]ccc23)c1 [I-64] | < 500 nM | 500 to 1500 nM
17 | < 500 nM | < 500 nM | – | – | CN(CCCCc1ccc(Oc2ccc(C(C)(C)O)cc2-c2cn(C)c(=O)c3[nH]ccc23)cc1)c1ccc(C(=O)N[C@H]2CC[C@H](Oc3ccc(C#N)c(Cl)c3)CC2)nn1 [I-122] | – | –

Row | SMILES | GI50 (VCaP cells) | GI50 (T47D cells) | GI50 (VCaP cells; Homo sapiens) | GI50 (T47D cells; Homo sapiens) | GI50 [1] | GI50 [2]
18 | Cn1cc(-c2cc(C3CCCS3(=O)=O)ccc2OC2CC(OCC3CCN(c4ccc(C(=O)NC5CCC(Oc6ccc(C#N)c(Cl)c6)CC5)nn4)CC3)C2)c2cc[nH]c2c1=O (stereo not shown) [I-245, N-[4-(3-chloro-4-cyano-phenoxy)cyclohexyl]-6-[4-[[3-[4-(1,1-dioxothiolan-2-yl)-2-(6-methyl-7-oxo-1H-pyrrolo[2,3-c]pyridin-4-yl)phenoxy]cyclobutoxy]methyl]-1-piperidyl]pyridazine-3-carboxamide] | – | – | < 500 nM | < 500 nM | < 500 nM | < 500 nM
